Several values for one entry are separate records, joined by “and”; a condition that tells them apart may be missing. Equal entries are not always repeated.
Test system: Trypanosoma rhodesiense
Assay: In vivo trypanocidal activity in infected mice (protocol based on Rane et al.)
Set-up: Activity at dosage, value in parentheses (increase in survival): unit not given here
Settings: for Activity at dosage (C = Cures) / Activity at dosage, value in parentheses (increase in survival): peritoneal (Table 2)
Protocol: The compounds of the present invention were evaluated biologically in vivo with groups of 5 mice at various dose levels. Unless otherwise indicated, the data are for subcutaneous administration. Dose levels marked with an asterisk are for peritoneal administration in a HEC+T medium. In addition, Table 2 present results of peritoneal administration with substituted quanylhydrazones. The biological evaluation was done according to a standard protocol based on the method described by Rane et al., Amer. J. Trop. Med Hyg. 25:395 (1976). […]

[1] = 6.6* mg/kg, peritoneal in HEC+T medium (Table I)
[2] = 13* mg/kg, peritoneal in HEC+T medium (Table I)
[3] = 26* mg/kg, peritoneal in HEC+T medium (Table I)
[4] = 106* mg/kg, peritoneal in HEC+T medium (Table I)
[5] = 424* mg/kg, peritoneal in HEC+T medium (Table I)

Cc1ccc2n(c1)cc(-c1ccc(C=NNC(=N)N)cc1)[n+]2C [BK13078]
Increase in survival (0.21 mg/kg, subcutaneous): 5.3 days
Trypanocidal activity, cures (0.21 mg/kg, subcutaneous): 2/5
Increase in survival (0.42 mg/kg, subcutaneous): 7.0 days
Trypanocidal activity, cures (0.42 mg/kg, subcutaneous): 4/5
Activity at dosage (C = Cures) (0.8 mg/kg): INAC
Trypanocidal activity, cures (0.83 mg/kg, subcutaneous): 10/10
Increase in survival (1.66 mg/kg, subcutaneous): 11.0 days
Trypanocidal activity, cures (1.66 mg/kg, subcutaneous): 9/10
Activity at dosage (C = Cures) (1.7 mg/kg): INAC
Activity at dosage, value in parentheses (increase in survival) (3.3 mg/kg): 1.0
Increase in survival (3.3 mg/kg, subcutaneous): 1.0 days
Trypanocidal activity, cures (3.33 mg/kg, subcutaneous): 5/5
Trypanocidal activity, cures (6.65 mg/kg, subcutaneous): 5/5
Activity at dosage, value in parentheses (increase in survival) (6.7 mg/kg): 7.0
Trypanocidal activity, cures (13.3 mg/kg, subcutaneous): 10/10
Activity at dosage, value in parentheses (increase in survival) (26 mg/kg): 10.6
Trypanocidal activity, cures (26.5 mg/kg, subcutaneous): 15/15
Activity at dosage, value in parentheses (increase in survival) (424 mg/kg): 12.5
Increase in survival [1]: 7.0 days
Trypanocidal activity, cures [1]: 3/5
Trypanocidal activity, cures [2]: 10/10
Trypanocidal activity, cures [3]: 13/15
Trypanocidal activity, cures (53* mg/kg, peritoneal in HEC+T medium (Table I)): 10/10
Trypanocidal activity, cures [4]: 10/10
Trypanocidal activity, cures (212* mg/kg, peritoneal in HEC+T medium (Table I)): 5/5

C[n+]1c(C=Cc2ccc(C=NNC3=NCCCN3)cc2)cn2ccccc21 [BL11202]
Trypanocidal activity, cures (0.4 mg/kg, subcutaneous): 5/5
Increase in survival (1.6 mg/kg, subcutaneous): 6.8 days
Trypanocidal activity, cures (1.6 mg/kg, subcutaneous): 9/10
Trypanocidal activity, cures (6.6 mg/kg, subcutaneous): 5/5
Trypanocidal activity, cures (26 mg/kg, subcutaneous): 15/15

C[n+]1c(-c2ccc(C=NNC(N)=O)cc2)cn2ccccc21 [BJ90730]
Increase in survival (26 mg/kg, subcutaneous): 7.7 days
Trypanocidal activity, cures (26 mg/kg, subcutaneous): 1/5
Increase in survival (106 mg/kg, subcutaneous): 10.9 days
Trypanocidal activity, cures (106 mg/kg, subcutaneous): 4/5
Increase in survival [4]: 1.9 days
Trypanocidal activity, cures [4]: 1/10
Increase in survival [5]: 4.8 days
Trypanocidal activity, cures [5]: 3/10

CC(=O)Nc1ccc(-c2cn3ccccc3[n+]2C)cc1 [BJ36718]
Increase in survival (53 mg/kg, subcutaneous): 8.0 days
Trypanocidal activity, cures (53 mg/kg, subcutaneous): 4/5
Increase in survival (106 mg/kg, subcutaneous): 4.4 days
Trypanocidal activity, cures (212 mg/kg, subcutaneous): 3/5 and 4/5
Increase in survival [4]: 7.0 days
Trypanocidal activity, cures [4]: 7/10
Increase in survival [5]: 11.0 days
Trypanocidal activity, cures [5]: 8/10

C[n+]1c(-c2ccc(C=NNC3=NCCN3)cc2)cn2ccsc21 [BK62620]
Increase in survival (13.3 mg/kg, subcutaneous): 28.0 days
Trypanocidal activity, cures (13.3 mg/kg, subcutaneous): 9/10

C[n+]1c(-c2ccc(C=NNC(N)=S)cc2)cn2ccccc21 [BJ90721]
Increase in survival (26 mg/kg, subcutaneous): 4.4 days
Increase in survival (53 mg/kg, subcutaneous): 7.8 days
Trypanocidal activity, cures (53 mg/kg, subcutaneous): 1/5
Increase in survival (106 mg/kg, subcutaneous): 7.5 days
Trypanocidal activity, cures (106 mg/kg, subcutaneous): 3/5
Increase in survival (212 mg/kg, subcutaneous): 18.0 days
Trypanocidal activity, cures (212 mg/kg, subcutaneous): 4/5
Trypanocidal activity, cures (424 mg/kg, subcutaneous): 5/5
Increase in survival [5]: 1.9 days
Trypanocidal activity, cures [5]: 1/10

C[n+]1c(-c2ccc(C=NNC(=N)N)cc2)cn2ccccc21 [BJ90749]
Increase in survival (0.21 mg/kg, subcutaneous): 2.5 days
Trypanocidal activity, cures (0.21 mg/kg, subcutaneous): 1/5
Increase in survival (0.42 mg/kg, subcutaneous): 5.4 days
Trypanocidal activity, cures (0.42 mg/kg, subcutaneous): 2/10
Increase in survival (0.83 mg/kg, subcutaneous): 6.2 days
Trypanocidal activity, cures (0.83 mg/kg, subcutaneous): 8/10
Trypanocidal activity, cures (1.6 mg/kg, subcutaneous): 10/10
Trypanocidal activity, cures (3.3 mg/kg, subcutaneous): 5/5
Trypanocidal activity, cures (6.6 mg/kg, subcutaneous): 5/5
Activity at dosage, value in parentheses (increase in survival) (13 mg/kg): 4.0
Trypanocidal activity, cures (13.3 mg/kg, subcutaneous): 10/10

C[n+]1c(-c2ccc(C(N)=S)cc2)cn2ccccc21 [BK11743]
Increase in survival (6.65 mg/kg, subcutaneous): 2.7 days
Trypanocidal activity, cures (6.65 mg/kg, subcutaneous): 2/10
Increase in survival (13.3 mg/kg, subcutaneous): 3.3 days
Trypanocidal activity, cures (13.3 mg/kg, subcutaneous): 1/10
Increase in survival (26 mg/kg, subcutaneous): 4.0 days
Trypanocidal activity, cures (26 mg/kg, subcutaneous): 3/15
Trypanocidal activity, cures (53 mg/kg, subcutaneous): 5/5
Increase in survival (106 mg/kg, subcutaneous): 3.2 days
Trypanocidal activity, cures (106 mg/kg, subcutaneous): 5/10
Increase in survival (212 mg/kg, subcutaneous): 17.0 days
Trypanocidal activity, cures (212 mg/kg, subcutaneous): 4/5

C[n+]1c(-c2ccc(C=NNC(=N)N3CCOCC3)cc2)cn2ccccc21 [BK51890]
Activity at dosage, value in parentheses (increase in survival) (0.8 mg/kg): 1.7
Activity at dosage, value in parentheses (increase in survival) (1.7 mg/kg): 10.9
Activity at dosage, value in parentheses (increase in survival) (26 mg/kg): 5.9
Increase in survival (1.66* mg/kg, peritoneal in HEC+T medium (Table I)): 10.9 days
Trypanocidal activity, cures (3.3* mg/kg, peritoneal in HEC+T medium (Table I)): 5/5
Trypanocidal activity, cures [1]: 5/5
Trypanocidal activity, cures [2]: 5/5
Trypanocidal activity, cures [3]: 9/10
Trypanocidal activity, cures [4]: 5/5
Trypanocidal activity, cures [5]: 5/5

C[n+]1c(-c2ccc(C(=N)N)cc2)cn2cc(C(=N)N)ccc21 [BK42748]
Increase in survival (26.5 mg/kg, subcutaneous): 2.3 days
Trypanocidal activity, cures (26.5 mg/kg, subcutaneous): 2/5
Increase in survival (53 mg/kg, subcutaneous): 3.0 days
Trypanocidal activity, cures (53 mg/kg, subcutaneous): 2/5

C[n+]1ccccc1COc1ccc(C=NNC2=NCCCN2)cc1 [BL07646]
Increase in survival (1.6 mg/kg, subcutaneous): 3.9 days
Trypanocidal activity, cures (1.6 mg/kg, subcutaneous): 1/10
Increase in survival (6.6 mg/kg, subcutaneous): 9.9 days
Trypanocidal activity, cures (6.6 mg/kg, subcutaneous): 3/5
Increase in survival (13 mg/kg, subcutaneous): 4.0 days
Trypanocidal activity, cures (13 mg/kg, subcutaneous): 9/10

C[n+]1c(-c2ccc(C(=N)N)cc2)c([N+](=O)[O-])n2ccccc21 [BK42757]
Increase in survival (53 mg/kg, subcutaneous): 2.5 days
Trypanocidal activity, cures (53 mg/kg, subcutaneous): 1/5
Increase in survival (106 mg/kg, subcutaneous): 3.0 days
Trypanocidal activity, cures (106 mg/kg, subcutaneous): 1/5

CN=C(N)NN=Cc1ccc(-c2cn3ccsc3[n+]2C)cc1 [BK47967]
Trypanocidal activity, cures (6.66 mg/kg, subcutaneous): 5/5

From patent publication US5204352A, “Compounds exhibiting anti-parasitic activity and a method for their use” (The United States of America as represented by the …, priority 1987, dated 1993)
